Test results as given in US6313153A, “Compositions and methods for treating nephritis and inhibiting TGF -β related conditions using pyridylacrylamide derivatives” (Tsumura & Co., priority 1997, dated 2001).
Where a name gives a salt, the structure may show the parent alone.

How the values were obtained:
[1] = tested on: anti-GBM nephritic mice; experiment: anti-GBM nephritic mice: proteinuria, serum cholesterol, blood urea nitrogen and serum creatinine; format: in vivo, BALB/c mice; settings: for Total Evaluation: 3 × (number of + in proteinuria) + (number of + in serum parameter); for Proteinuria 5th day: 5th day from intravenous injection of anti-GBM serum; for Proteinuria 5th day / Proteinuria 10th day / Serum Parameter BUN (blood urea nitrogen) / Serum Parameter S-Ch (serum cholesterol) / Serum Parameter S-Cr (serum creatinine): oral; for Proteinuria 10th day: 10th day from intravenous injection of anti-GBM serum; for Serum Parameter BUN (blood urea nitrogen) / Serum Parameter S-Ch (serum cholesterol) / Serum Parameter S-Cr (serum creatinine): 11th day;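 as to Proteinuria 10th day: minus not effective plus trend double p<0.05 triple p<0.01 quadruple p<0.001 improvement vs control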;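 as to Proteinuria 5th day: minus not effective plus trend double p<0.05 triple p<0.01 quadruple p<0.001 improvement vs control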;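 as to Serum Parameter BUN (blood urea nitrogen): minus not effective plus trend double p<0.05 triple p<0.01 quadruple p<0.001 improvement vs control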;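 as to Serum Parameter S-Ch (serum cholesterol): minus not effective plus trend double p<0.05 triple p<0.01 quadruple p<0.001 improvement vs control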
Experimental: BALB/c mice (5 weeks old, purchased from Nippon Charles Liver) were quarantined and adapted for about 1 week before subjecting to experiments. These mice were divided into several groups for the experiments so that average body weights and standard deviations were almost identical in all groups. Mouse anti-GBM (glomerular basement membrane) nephritis was caused by immunizing the mice with rabbit γ-globulin (1 mg) with Freund's complete adjuvant and intravenously injecting rabbit anti-mouse GBM serum on the fifth day from the immunization. Each compound tested was forcedly orally administered via an oral sonde almost simultaneously with the intravenous injection of the anti-GBM serum. On the 5th and 10th days from the intravenous injection, urine was taken by a plastic metabolic cage and proteinuria was measured (Ohtsuka Tonein TP2). On the 11th day, blood was taken by cutting the carotid and serum cholesterol (S--Ch), blood urea nitrogen (BUN) and serum creatinine (S--Cr) were measured by Toshiba TBA-380 autoanalyzer.

[2] = tested on: total TGF-β1; experiment: production of total TGF-β1 in glomeruli isolated from nephritic mice (ELISA); format: cell-based, BALB/c male mice; settings: Mus musculus, 10^-6 M, 48 hours, supernatant acid treated, read-out: Inhibition rate (%) of production of total TGF-β1
Experimental: (§1) BALB/c male mice were adapted in a feeding chamber for 1 week before subjecting to experiments. Nephritis was induced by subcutaneously injecting an emulsion of rabbit γ-globulin and Freund's complete adjuvant on the back in a dose amount of 1.0 mg per mouse and, after 5 days (on the zeroth day), intravenously injecting rabbit anti-mouse GBM serum in a dose amount of 0.1 ml per mouse. After 1 day from the injection of anti-serum, the glomeruli were isolated through sieves with different sizes and washed twice. Each compound to be tested (10^-6 M) was added while the solvent was added to the control groups. The glomeruli were incubated in RPMI-1640 serum-free medium for 48 hours. The amount of production of active TGF-β1 was determined by measuring the supernatant itself after the incubation for 48 hours in ELSA method. Further, the supernatant was treated with hydrochloric acid and the pH was returned with sodium hydroxide. The total amount of TGF-β1 produced in the supernatant was measured in ELISA method. The protein concentration in the medium was also measured as glomeruli protein concentration. The inhibition rate was calculated by the following equation.
(§2) Inhibition rate (%)=100×(value of control group-value of sample)/(value of control group)

[3] = tested on: active TGF-β1; experiment: production of active TGF-β1 in glomeruli isolated from nephritic mice (ELISA); format: cell-based, BALB/c male mice; settings: Mus musculus, 10^-6 M, 48 hours, read-out: Inhibition rate (%) of production of active TGF-β1
Experimental: as §1, §2

[4] = tested on: TGF-β1; experiment: Glomerular TGF-β1 Expression in IgA Nephropathy in Mice (immunohistochemical staining score); format: in vivo, Male ddY mice; settings: for staining score (Index), glomerular TGF-β1: 5 weeks, Mean ± S.E.
Source text: Effects of the compounds of the present Invention on the Glomerular TGF-β1 Expression in IgA Nephropahty in Mice
Male ddY mice of 9 weeks old were used, each group consisting of 5 mice. One kidney was nephrectomized from the mice on the zero week, and carbon was intravenously injected from 1 week after the nephrectomy (once per week, total three times). In Experiment 1, administration was commenced on the final day of the intravenous injection of carbon. In Experiment 2, administration was commenced after the mice were allowed to stand for 10 weeks from the intravenous injection of carbon. In both Experiments, the administration was continued for 5 weeks and then the kidney was taken, fixed with […] and embedded in paraffin. Sliced specimens were stained as TGF-β1 positive area by the immunohistochemical analysis method using TGF-β1 antibody.
Staining was evaluated according to the Kagami et al. method (Kagami S., Border WA., Ruslahti E., Noble B.: Coordinated expression of β integrins and transforming growth factor-β induced matrix proteins in glomerulonephritis. Lab Invest 1993, 69, 68-76) and is shown as staining score (Index).

[5] = Experiment 2, 2.0 mg/kg, p < 0.05 vs control

Structure (SMILES)	Total Evaluation [1]	Proteinuria 5th day [1]	Proteinuria 10th day [1]	Serum Parameter BUN (blood urea nitrogen) [1]	Serum Parameter S-Ch (serum cholesterol) [1]	Serum Parameter S-Cr (serum creatinine) [1]	inhibition at 1 µM [2] [%]	other results
COc1ccc(CCN(C)C(=O)/C(C#N)=C/c2cccnc2)cc1OC [Compound 2]	13	+	+++	-	-	+	56.7	
CCN(CCc1ccc(OC)c(OC)c1)C(=O)/C=C/c1cccnc1 [Compound 12]	8	-	+	+	+	+++	37.8	
COc1ccc(CCN(C)C(=O)/C=C/c2cncc(Cl)c2)cc1OC [Compound 29]	16	++	++	+	++	+	32.6	
COC(=O)c1cncc(/C=C/C(=O)N(C)CCc2ccc(OC)c(OC)c2)c1 [Compound 33]	7	++	++	-	++	+	49.8	
COc1ccc(CCN(C)C(=O)/C=C/c2cccnc2)cc1 [Compound 49]	7	-	+	+	+	++	59	
COc1ccc(CCN(C)C(=O)/C=C/c2cccnc2)cc1O [Compound 51]							56.8	
COc1ccc(CCNC(=O)/C=C/c2cccnc2)cc1OC [Compound 55]	17	+	+++	++	+++	-	75.7	
COc1ccc(CCN(C)C(=O)/C(C)=C/c2cccnc2)cc1OC [Compound 62]	14	-	+++	++	+++	+	31.9	
COc1cc(CCN(C)C(=O)/C=C/c2cccnc2)ccc1O [Compound 73]	22	+++	+++	+	+++	-	84	inhibition at 1 µM [3]: 78%
O=C(/C=C/c1cccnc1)NCCc1cccc(O)c1 [Compound 81, (E)-N-(3-hydroxyphenethyl)-3-(3-pyridyl)-2-propenoic acid amide]	26	+++	+++	+++	+++	++		inhibition at 1 µM [3]: 58%
COc1ccc(CCN(C)C(=O)/C=C/c2cccnc2)cc1OC [Compound 84, (E)-N-(3,4-dimethoxyphenethyl)-N-methyl-3-(3-pyridyl)-2-propenoic acid amide]	23	+++	+++	+++	++	-	85	inhibition at 1 µM [3]: 40%
CCOC(=O)COc1cccc(CCNC(=O)/C=C/c2cccnc2)c1 [Compound 99]	21	+++	+++	+	-	++		glomerular TGF-β1 expression ([4]; Experiment 1): tendency of inhibiting glomerular TGF-β1 expression; % inhibition of Index ([4]; Experiment 1, 0.1 mg/kg): 15%; staining score (Index), glomerular TGF-β1 ([4]; Experiment 1, 0.1 mg/kg): 0.17 ± 0.04; % inhibition of Index ([4]; Experiment 1, 0.5 mg/kg): 35%; staining score (Index), glomerular TGF-β1 ([4]; Experiment 1, 0.5 mg/kg): 0.13 ± 0.03; % inhibition of Index ([4]; Experiment 1, 2.0 mg/kg): 45%; staining score (Index), glomerular TGF-β1 ([4]; Experiment 1, 2.0 mg/kg): 0.11 ± 0.03; increase of Index ([4]; Experiment 2): significantly inhibited the increase of Index; % inhibition of Index ([4]; Experiment 2, 0.1 mg/kg): 29%; staining score (Index), glomerular TGF-β1 ([4]; Experiment 2, 0.1 mg/kg): 0.29 ± 0.04; staining score (Index), glomerular TGF-β1 [4, 5]: 0.18 ± 0.05; % inhibition of Index [4, 5]: 56%; production of TGF-β1 in vivo ([4]; Experiments 1 and 2, conclusion): inhibiting action on the production of TGF-β1 in vivo
O=C(/C=C/c1cccnc1)NCCc1cccc(OCC(=O)NO)c1 [Compound 120]							56.9	
COc1ccc(CCN(C)C(=S)/C=C/c2cccnc2)cc1OC [Compound 135, (E)-N-(3,4-dimethoxyphenethyl)-N-methyl-3-(3-pyridyl)-2-propenoic acid thioamide hydrochloride]	6	-	+	+	+	+	47.1	
O=C(O)COc1cccc(CCNC(=O)/C=C/c2cccnc2)c1 [Compound 148]							78.3	inhibition at 1 µM [3]: 45%
O=C(O)COc1ccc(CCNC(=O)/C=C/c2cccnc2)cc1 [Compound 149]							35.9	
O=C(O)COc1cccc(CCNC(=S)/C=C/c2cccnc2)c1 [Compound 151]							19.1	
COc1ccc(CCN(C)C(=O)/C=C/c2ccccn2)cc1OC [Compound 153]							31	
COc1ccc(CCN(C)C(=O)/C=C/c2ccncc2)cc1OC [Compound 154]							53.4	
COc1cc(C(=O)CN(C)C(=O)/C=C/c2cccnc2)ccc1O [Compound 162, (E)-N-methyl-N-(3-methoxy-4-hydroxyphenacyl)-3-(3-pyridyl)-2-propenoic acid amide]	13	+++	+	-	+	-		
COc1ccc(C(=O)CN(C)C(=S)/C=C/c2cccnc2)cc1OC [Compound 165, (E)-N-[2-(3,4-dimethoxyphenyl)-2-oxoethyl]-N-methyl-3-(3-pyridyl)-2-propenoic acid thioamide]	22	+++	+++	+	+++	-		
